Data set [1] can be described thus: Fluorescence quantum yield in acetonitrile. The data set is classed as physicochemical. The conditions noted are these: for quantum yield of fluorescence ϕf: in MeCN, excitation at 483 nm, emission 637 nm (II) or 550 nm (II-H), reference tetraphenylporphyrin. The text has this:
The inventors then set out to measure the value ϕf of the quantum yield of fluorescence of the following compound taken up in acetonitrile
To do this, the inventors measured the absorbance (relative intensity) as a function of the wavelength (in nm) in the presence of increasing doses of 1,8-[…] (DBU—0 to 2 equivalents).
Phenazinium II and its II-H conjugate base fluoresce in MeCN at neutral or basic pH. […] The reference used for the calculation of the fluorescence quantum yield is tetraphenylporphyrin in acetonitrile (ϕf=0.15).
Calculation of ϕ: It is determined by measuring the emission intensity of a solution of known concentration; the reference used to calculate the fluorescence quantum yield here is tetraphenylporphyrin in acetonitrile (ϕf=0.15).

For data set [2], the system named is healthy donor fibroblasts. As to the kind of experiment: Internalization by flow cytometry (red fluorescent cells). The data set is classed as cell-based. The note with it: 0.5 nM. How it is done:
by healthy living cells of the fibroblast type. Cells were treated with 0.5 nM compound for 1, 3, 6 or 24 h and red fluorescence was measured by flow cytometry. […] The x-axis represents the incubation time in hours and the y-axis the percentage of red fluorescent cells.
(§1) To do this, MCF-7 cells or healthy donor fibroblasts have been treated or not with 0.5 nM of compound of formula
(§2) for 1, 3, 6 or 24 h, and cell fluorescence was assessed by flow cytometry by detecting the number of cells with red fluorescence.

The subject of data set [3] is MCF-7 cells. The data set is described as above. Format: cell-based, human. The conditions noted are these: MCF-7, 0.5 nM. The protocol:
by live MCF-7 cancer cells. Cells were treated with 0.5 nM compound for 1, 3, 6 or 24 h and red fluorescence was measured by flow cytometry. […] The x-axis represents the incubation time in hours and the y-axis the percentage of red fluorescent cells.
as §1, §2

The nature of data set [4]: Singlet oxygen (1O2) production quantum yield. Format: physicochemical. The protocol: The absorption spectra were measured with a Perkin-Elmer double beam UV-visible spectrophotometer (Lambda EZ 210). The fluorescence spectrum was measured with a Fluorolog FL3-222 spectrofluorimeter (Horiba Jobin Yvon, Longjumeau, France) equipped with a 450 W xenon arc lamp, a thermostated compartment (25° C.), a photomultiplier UV-visible R928 ([…] Japan) and an InGaAs infrared detector cooled with liquid nitrogen (DSS-16A020L Electro-Optical System Inc, Phoenixville, Pa., USA). The excitation beam is separated by an SPEX dual grating monochromator (1200 lines/mm blazed at 330 nm). The fluorescence was measured by the UV-Visible detector via the SPEX double grating emission monochromator (1200 lines/mm blazed at 500 nm). The production of singlet oxygen was measured by the infrared detector via the SPEX double grating emission monochromator (600 lines/mm blazed at 1 μm). All spectra were measured using 4-sided quartz cuvettes. The absorbance values at the excitation wavelength of the references and samples have been adjusted to approximately 0.2.
By this method, the inventors were able to measure the quantum yield ϕΔ, which is 0.11 for the compound

The next data set deals with MCF7 cells. The data set can be described thus: One-photon photodynamic therapy in vitro, MTT viability. The note with it: MCF7, 100 nM, 5 h incubation, one-photon irradiation (λirrad.=514 nm), MTT two days later. The data set is classed as cell-based, human. The protocol: FIG. […] Two days later, the cells were subjected to a colorimetric cell viability assay (MTT). The experiment was carried out 3 times.
The inventors tested the effect of the compounds according to the invention in photodynamic therapy. MCF7 cells were incubated with the compound of formula
[…] Two days later, the cells were subjected to a colorimetric cell viability assay (MTT).

The test system of data set [5] is MCF-7 cells. The data set can be described thus: Two-photon photodynamic therapy in vitro. The conditions noted are these: two-photon λirrad.=810 nm, irradiation 5 seconds, 100 nM. Format: cell-based, human. How it is done: As a control, untreated MCF7 cells without irradiation (A1), after irradiation at 790 nm (B1) or 810 nm (C1) are presented. […] Data are means of three experiments±standard deviation.
Two-photon photodynamic therapy (λirrad.=810 nm) has shown very encouraging results, since nearly 50% of tumor cells are killed without optimization (irradiation for only 5 seconds at a very low concentration of 100 nM of compound according to the invention).

For a further data set, the system named is MCF-7 tumor cells. The data set can be described thus: Internalization kinetics with CLARIOstar plate reader. The data set is classed as cell-based, human. The note with it: MCF-7, in less than 24 hours. The protocol:
Data are percent internalization (remaining fluorescence/total fluorescence) as a function of time in hours. Data are means of three experiments±standard deviation.
The internalization kinetics were carried out with a CLARIOstar reader in order to quantify the internalization of the compound in the MCF-7 tumor cells. The values, corresponding to the ratio of the residual fluorescence/the total fluorescence, are presented in the form of means of three experiments, ±the standard deviation.

Molecules are shown by their SMILES.

With `CCCCCCCCNc1ccc2nc3cc(NC(C)(C)C)c(=N)cc-3n(CCCCCCCC)c2c1` [II-H], the “quantum yield of fluorescence ϕf” value in data set [1] was 0.08.

For `CCCCCCCCNc1ccc2nc3cc(NC(C)(C)C)c(N)cc3[n+](CCCCCCCC)c2c1` [drawing 47], the “cells that have internalized the compound” value in data set [2] (6 h incubation) is on record as 18%; in data set [2] (24 h incubation), 24%; with MCF-7 cells [3] (6 h incubation), 46%; in the data set on MCF-7 cells [3] (24 h incubation) it was 90%.

Consider `CCCCCCCCNc1ccc2nc3cc(NC(C)(C)C)c(N)cc3[n+](CCCCCCCC)c2c1` [drawing 44], for which, in data set [4], the “singlet oxygen quantum yield ϕΔ” value is 0.11.

Consider `CCCCCCCCNc1ccc2nc3cc(NC(C)(C)C)c(N)cc3[n+](CCCCCCCC)c2c1` [drawing 45], for which the tumor cells killed was 98% in the data set with MCF7 cells and approximately 50% in the data set with MCF-7 cells [5].

With `CCCCCCCCNc1ccc2nc3cc(NC(C)(C)C)c(N)cc3[n+](CCCCCCCC)c2c1` [II], in data set [1], the “quantum yield of fluorescence ϕf” value is given as 0.76. Further, the “brightness (B=ε×ϕ)” value in data set [1] (in acetonitrile) was “about 50000”. In the data set on MCF-7 tumor cells, the “percent internalization (compound penetrating the cell)” value is given as 10%.

The record behind these values is patent US20220315539A1, “PHENAZINE DERIVATIVE AND USE THEREOF FOR THE TREATMENT OF CANCER” (CENTRE NATIONAL DE LA RECHERCHE SCIENTIFIQUE, priority 2019, published 2022).
